Results as given in PubChem BioAssay AID1259407 (Chemical Carcinogenesis Research Information System (CCRIS), 2018).
Activity calls are given as the source filed them. The rule behind the calls is not given here.

Tested on: CCRIS mutagenicity, Ames/micronucleus/aberration tests
Experiment: CCRIS mutagenicity studies
[1] = Test System: AMES SALMONELLA TYPHIMURIUM, Strain/Indicator: TA98, Metabolic Activation: NONE, Method: PREINCUBATION
[2] = Test System: AMES SALMONELLA TYPHIMURIUM, Strain/Indicator: TA100, Metabolic Activation: NONE, Method: PREINCUBATION

SMILES: CN(Cc1cnc2nc(N)nc(N)c2n1)c1ccc(C(=O)N[C@@H](CCC(=O)O)C(=O)O)cc1
- mutagenic call (End Point: IN VITRO MICRONUCLEUS, Test System: V79 CELLS, Metabolic Activation: NONE): inactive; negative
- mutagenic call (End Point: IN VIVO CHROMOSOMAL ABERRATIONS, Test System: BONE MARROW, Species: MOUSE, Strain/Sex: SWISS/MALE, FEMALE, Route: INTRAPERITONEAL): active; positive (structural changes)
- mutagenic call (End Point: IN VIVO MICRONUCLEUS, Test System: BONE MARROW, Species: MOUSE, Strain/Sex: SWISS/MALE, FEMALE, Route: INTRAPERITONEAL): active; positive
- mutagenic call (End Point: In vitro micronucleus, Test System: Human lymphoblastoid TK6 cells, Metabolic Activation: None): active; positive (p<0.001)
- mutagenic call [1]: inactive; negative
- mutagenic call (Test System: AMES SALMONELLA TYPHIMURIUM, Strain/Indicator: TA98, Metabolic Activation: NONE, Method: STANDARD PLATE): inactive; negative
- mutagenic call (Test System: AMES SALMONELLA TYPHIMURIUM, Strain/Indicator: TA98, Metabolic Activation: S-9, Method: PREINCUBATION): inactive; negative
- mutagenic call (Test System: AMES SALMONELLA TYPHIMURIUM, Strain/Indicator: TA98, Metabolic Activation: S-9, Method: STANDARD PLATE): inactive; negative
- mutagenic call [2]: inactive; negative
- mutagenic call (Test System: AMES SALMONELLA TYPHIMURIUM, Strain/Indicator: TA100, Metabolic Activation: NONE, Method: STANDARD PLATE): inactive; negative
- mutagenic call (Test System: AMES SALMONELLA TYPHIMURIUM, Strain/Indicator: TA100, Metabolic Activation: S-9, Method: PREINCUBATION): inactive; negative
- mutagenic call (Test System: AMES SALMONELLA TYPHIMURIUM, Strain/Indicator: TA100, Metabolic Activation: S-9, Method: STANDARD PLATE): inactive; negative
- mutagenic call (Test System: AMES SALMONELLA TYPHIMURIUM, Strain/Indicator: TA102, Metabolic Activation: NONE, Method: STANDARD PLATE): inactive; negative
- mutagenic call (Test System: AMES SALMONELLA TYPHIMURIUM, Strain/Indicator: TA1537, Metabolic Activation: NONE, Method: STANDARD PLATE): inactive; negative
- mutagenic call (Test System: CHINESE HAMSTER V-79, Strain/Indicator: V-79 (HGPRT)/6-THIOGUANINE, Metabolic Activation: NONE): inactive; negative
- mutagenic call (Test System: CHINESE HAMSTER V-79, Strain/Indicator: V-79/6-THIOGUANINE, Metabolic Activation: NONE, Method: SUSPENSION/PLATE): inactive; negative
- mutagenic call (Test System: CHINESE HAMSTER V-79, Strain/Indicator: V-79/6-THIOGUANINE, Metabolic Activation: RAT, LIVER, HEPATOCYTES, Method: SUSPENSION/PLATE): inactive; negative
- mutagenic call (Test System: E. COLI, Strain/Indicator: WP2 (HCR), Metabolic Activation: NONE, Method: STANDARD PLATE): inactive; negative
- mutagenic call (Test System: E. COLI, Strain/Indicator: WP2 (HCR), Metabolic Activation: S-9, Method: STANDARD PLATE): inactive; negative
- mutagenic call (Test System: E. COLI, Strain/Indicator: WP2, Metabolic Activation: NONE, Method: STANDARD PLATE): active; positive
- mutagenic call (Test System: MOUSE LYMPHOMA, Strain/Indicator: L5178Y (TK+/TK-), Metabolic Activation: NONE, Method: MICROWELL): active; positive
- mutagenic call (Test System: MOUSE LYMPHOMA, Strain/Indicator: L5178Y (TK+/TK-), Metabolic Activation: NONE, Method: SUSPENSION/PLATE): active; positive
- mutagenic call (Test System: MOUSE LYMPHOMA, Strain/Indicator: L5178Y (TK+/TK-), Metabolic Activation: RAT, LIVER, S-9, AROCLOR 1254, Method: SUSPENSION/PLATE): active; positive
- mutagenic call (Test System: MOUSE LYMPHOMA, Strain/Indicator: L5178Y (TK+/TK-), Metabolic Activation: S-9, Method: MICROWELL): active; positive

SMILES: CCCSP(=O)(OCC)SCCC
- mutagenic call (End Point: In vitro chromosomal aberrations, Test System: Chinese hamster ovary (CHO) cells, Metabolic Activation: None): inactive; negative
- mutagenic call (End Point: UDS/DNA repair, Test System: Fischer 344 rat (male) hepatocytes, Metabolic Activation: None, Method: Autoradiography): inactive; negative
- mutagenic call (End Point: UDS, Test System: Fischer 344 rat hepatocytes, Metabolic Activation: None, Method: Autoradiography): inactive; negative
- mutagenic call (Test System: Ames Salmonella typhimurium, Strain/Indicator: TA98, Metabolic Activation: None, Method: Plate incorporation): inactive; negative
- mutagenic call (Test System: Ames Salmonella typhimurium, Strain/Indicator: TA98, Metabolic Activation: Rat, Liver, S-9, Method: Plate incorporation): inactive; negative
- mutagenic call (Test System: Ames Salmonella typhimurium, Strain/Indicator: TA100, Metabolic Activation: None, Method: Plate incorporation): inactive; negative
- mutagenic call (Test System: Ames Salmonella typhimurium, Strain/Indicator: TA100, Metabolic Activation: Rat, Liver, S-9, Method: Plate incorporation): inactive; negative
- mutagenic call (Test System: Ames Salmonella typhimurium, Strain/Indicator: TA1535, Metabolic Activation: None, Method: Plate incorporation): inactive; negative
- mutagenic call (Test System: Ames Salmonella typhimurium, Strain/Indicator: TA1535, Metabolic Activation: Rat, Liver, S-9, Method: Plate incorporation): inactive; negative
- mutagenic call (Test System: Ames Salmonella typhimurium, Strain/Indicator: TA1537, Metabolic Activation: None, Method: Plate incorporation): inactive; negative
- mutagenic call (Test System: Ames Salmonella typhimurium, Strain/Indicator: TA1537, Metabolic Activation: Rat, Liver, S-9, Method: Plate incorporation): inactive; negative
- mutagenic call (Test System: Ames Salmonella typhimurium, Strain/Indicator: TA1538, Metabolic Activation: None, Method: Plate incorporation): inactive; negative
- mutagenic call (Test System: Ames Salmonella typhimurium, Strain/Indicator: TA1538, Metabolic Activation: Rat, Liver, S-9, Method: Plate incorporation): inactive; negative
- mutagenic call (Test System: Chinese hamster ovary, Strain/Indicator: CHO-K1-BH4 (HGPRT), Metabolic Activation: None, Method: Suspension/plate): inactive; negative
- mutagenic call (Test System: Chinese hamster ovary, Strain/Indicator: CHO-K1-BH4 (HGPRT), Metabolic Activation: Rat, Liver, S-9, Method: Suspension/plate): inactive; negative
- mutagenic call (Test System: Mouse lymphoma cells, Strain/Indicator: L5178Y cells, Metabolic Activation: None, Method: Plate): inactive; negative
- mutagenic call (Test System: Mouse lymphoma cells, Strain/Indicator: L5178Y cells, Metabolic Activation: S-9, Method: Plate): inactive; negative

SMILES: c1ccc2c(c1)-c1cc3ccccc3c3cc4c(c-2c13)CCCC4
- mutagenic call (Test System: AMES SALMONELLA TYPHIMURIUM, Strain/Indicator: TA100, Metabolic Activation: RAT, LIVER, S-9, 3-METHYLCHOLANTHRENE, Method: STANDARD PLATE): active; positive

SMILES: P
- mutagenic call (Test System: AMES SALMONELLA TYPHIMURIUM, Strain/Indicator: TA98, Metabolic Activation: NONE, Method: GAS EXPOSURE): inactive; negative
- mutagenic call (Test System: AMES SALMONELLA TYPHIMURIUM, Strain/Indicator: TA98, Metabolic Activation: RAT LIVER S-9, PHENOBARBITAL AND BETA-NAPHTHOFLAVONE, Method: GAS EXPOSURE): inactive; negative
- mutagenic call (Test System: AMES SALMONELLA TYPHIMURIUM, Strain/Indicator: TA100, Metabolic Activation: NONE, Method: GAS EXPOSURE): inactive; negative
- mutagenic call (Test System: AMES SALMONELLA TYPHIMURIUM, Strain/Indicator: TA100, Metabolic Activation: RAT LIVER S-9, PHENOBARBITAL AND BETA-NAPHTHOFLAVONE, Method: GAS EXPOSURE): inactive; negative
- mutagenic call (Test System: AMES SALMONELLA TYPHIMURIUM, Strain/Indicator: TA1535, Metabolic Activation: NONE, Method: GAS EXPOSURE): inactive; negative
- mutagenic call (Test System: AMES SALMONELLA TYPHIMURIUM, Strain/Indicator: TA1535, Metabolic Activation: RAT LIVER S-9, PHENOBARBITAL AND BETA-NAPHTHOFLAVONE, Method: GAS EXPOSURE): inactive; negative
- mutagenic call (Test System: AMES SALMONELLA TYPHIMURIUM, Strain/Indicator: TA1537, Metabolic Activation: NONE, Method: GAS EXPOSURE): inactive; negative
- mutagenic call (Test System: AMES SALMONELLA TYPHIMURIUM, Strain/Indicator: TA1537, Metabolic Activation: RAT LIVER S-9, PHENOBARBITAL AND BETA-NAPHTHOFLAVONE, Method: GAS EXPOSURE): inactive; negative
- mutagenic call (Test System: E.COLI, Strain/Indicator: WP2UVRA, Metabolic Activation: NONE, Method: GAS EXPOSURE): inactive; negative
- mutagenic call (Test System: E.COLI, Strain/Indicator: WP2UVRA, Metabolic Activation: RAT LIVER S-9, PHENOBARBITAL AND BETA-NAPHTHOFLAVONE, Method: GAS EXPOSURE): inactive; negative

SMILES: O=[N+]([O-])c1ccccc1CO
- mutagenic call [1]: inactive; negative
- mutagenic call [2]: inactive; negative
- mutagenic call (Test System: AMES SALMONELLA TYPHIMURIUM, Strain/Indicator: TA100, Metabolic Activation: RAT, LIVER, S-9, AROCLOR 1254, Method: PREINCUBATION): inactive; negative
